Test results taken from patent publication US20240308987A1, “SMALL MOLECULE INHIBITOR AGAINST NASOPHARYNGEAL CARCINOMA, PREPARATION METHOD AND APPLICATION THEREOF” (SHENZHEN BAY LABORATORY, priority 2021, published 2024).

Test system: C666-1 cells
Test: C666-1 Cell Viability Assay (Resazurin cytotoxicity test)
Format: cell-based
Details: Homo sapiens, C6661, EB virus-positive C666-1 cells, 72 hours treatment, 100-0.78 micromole/L, read-out: Inhibitory Rate
In short: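 EBV-positive nasopharyngeal carcinoma C666-1 cells, 5×10^3 per well, were grown 24 h, then exposed to compound for 72 h at 37 °C (8-point two-fold dilutions, final 100–0.78 µM). Viability was read by resazurin reduction fluorescence after 3 h; EC50 came from the fitted inhibition curve.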

For `O=C(Cc1cccnc1)Nc1ccc(OC2CN(c3cccc(C(=O)O)c3-c3ccccc3)C2)cc1` [Example 45a, 6-(3-(4-(2-(pyridin-3-yl)acetamido)phenoxy)azetidin-1-yl)-[1,1′-biphenyl]-2-carboxylic acid], the EC50 was 10 to 50 µM.
Compound `O=C(NO)c1cccc(N2CC(Oc3ccc(/C=C/c4cccnc4)cc3)C2)c1-n1cccc1` [Example 28b, (E)-N-hydroxy-3-(3-(4-(2-(pyridin-3-yl)vinyl)phenoxy)azetidin-1-yl)-2-(1H-pyrrol-1-yl) benzamide] has an EC50 of under 1 µM.
In the case of `O=C(NO)c1cccc(N2CC(Oc3ccc(COc4cccnc4)cc3)C2)c1-c1ccccc1` [Example 17b, N-hydroxy-6-(3-(4-((pyridin-3-yloxy)methyl)phenoxy)azetidin-1-yl)-[1,1′-biphenyl]-2-carboxamide], the EC50 is reported as 1 to 10 µM.
With `COC(=O)c1cccc(C#Cc2ccc(CC(=O)Nc3cccnc3)cc2)c1-c1ccccc1` [Example 60, methyl 6-((4-(2-oxo-2-(pyridin-3-ylamino)ethyl)phenyl)ethynyl)-[1,1′-biphenyl]-2-carboxylate] the EC50 was under 1 µM.
Work on `O=C(Cc1ccc(OC2CN(c3cccc(C(=O)NO)c3-c3ccccc3)C2)cc1)Nc1cccnc1` [Example 40b, N-hydroxy-6-(3-(4-(2-oxo-2-(pyridin-3-ylamino)ethyl)phenoxy)azetidin-1-yl)-[1,1′-biphenyl]-2-carboxamide] yielded an EC50 of under 1 µM.
Work on `O=C(NO)c1cccc(N2CC(Oc3ccc(/C=C/c4cccnc4)cc3)C2)c1-c1ccccc1` [Example 36b, (E)-N-hydroxy-6-(3-(4-(2-(pyridin-3-yl)vinyl)phenoxy)azetidin-1-yl)-[1,1′-biphenyl]-2-carboxamide] yielded an EC50 of under 1 µM.
`COC(=O)c1cccc(N2CC(Oc3ccc(/C=C/c4cccnc4)cc3)C2)c1-n1cccc1` [Example 28, methyl (E)-3-(3-(4-(2-(pyridin-3-yl)vinyl)phenoxy)azetidin-1-yl)-2-(1H-pyrrol-1-yl) benzoate] showed an EC50 of over 50 µM.
`COC(=O)c1cccc(N2CC(Oc3ccc(COc4cncnc4)cc3)C2)c1-n1cccc1` [Example 14, methyl 3-(3-(4-((pyrimidin-5-yloxy)methyl)phenoxy)azetidin-1-yl)-2-(1H-pyrrol-1-yl) benzoate] was tested, and the EC50 was 1 to 10 µM.
Compound `O=C(O)c1cccc(N2CC(Oc3ccc(/C=C/c4cccnc4)cc3)C2)c1-n1cccc1` [Example 28a, (E)-3-(3-(4-(2-(pyridin-3-yl)vinyl)phenoxy)azetidin-1-yl)-2-(1H-pyrrol-1-yl) benzoic acid] has an EC50 of 1 to 10 µM.
In the case of `O=C(NO)c1cccc(N2CC(Oc3ccc(COCc4cccnc4)cc3)C2)c1-n1cccc1` [Example 27b, N-Hydroxy-3-(3-(4-((pyridin-3-ylmethoxy)methyl)phenoxy)azetidin-1-yl)-2-(1H-pyrrol-1-yl)benzamide], the EC50 is reported as under 1 µM.
Compound `COC(=O)c1cccc(N2CC(Oc3ccc(N(C)C(=O)Nc4cccc(C#N)c4)cc3)C2)c1-n1cccc1` [Example 7, methyl 3-(3-(4-(3-(3-cyanophenyl)-1-methylureido)phenoxy)azetidin-1-yl)-2-(1H-pyrrol-1-yl) benzoate] has an EC50 of 10 to 50 µM.
`O=C(Nc1ccc(OC2CN(c3cccc(C(=O)O)c3-c3cccc(Cl)c3)C2)cc1)Nc1cccnc1` [Example 41a, 3′-chloro-6-(3-(4-(3-(pyridin-3-yl)ureido)phenoxy)azetidin-1-yl)-[1,1′-biphenyl]-2-carboxylic acid] was tested, and the EC50 was 1 to 10 µM.
`COC(=O)c1cccc(N2CC(Oc3ccc(COc4cccnc4)c(C)c3)C2)c1-n1cccc1` [Example 15, methyl 3-(3-(3-methyl-4-((pyridin-3-yloxy)methyl)phenoxy)azetidin-1-yl)-2-(1H-pyrrol-1-yl) benzoate] showed an EC50 of 10 to 50 µM.
`COC(=O)c1cccc(N2CC(Oc3ccc(COc4cncc(OC)c4)cc3)C2)c1-n1cccc1` [Example 6, methyl 3-(3-(4-(((5-methoxypyridin-3-yl)oxy)methyl)phenoxy)azetidin-1-yl)-2-(1H-pyrrol-1-yl) benzoate] showed an EC50 of over 50 µM.
Work on `COC(=O)c1cccc(N2CC(Oc3ccc(OCc4cccnc4)cc3)C2)c1-n1cccc1` [Example 24, methyl 3-(3-(4-(pyridin-3-ylmethoxy)phenoxy)azetidin-1-yl)-2-(1H-pyrrol-1-yl) benzoate] yielded an EC50 of 1 to 10 µM.
